Calls of active or inactive are those of the source.
Key:
[1] = target: Transitional endoplasmic reticulum ATPase (Homo sapiens, UniProt P55072, C522A); test: C522A mutant p97 ATPase inhibitors, dose response, counter-screen for p97 inhibitor project, biochemical, luminescence (AID 1544)
[2] = target: Beta-galactosidase (Escherichia coli, UniProt Q8VNN2); test: beta-galactosidase enzyme inhibitors and activators, dose response, artefact control for CCR6 antagonist project, biochemical, E. coli enzyme, set 3 (AID 504712); type: functional
[3] = target: Transitional endoplasmic reticulum ATPase (Homo sapiens, UniProt P55072); test: p97 ATPase inhibitors, dose response, biochemical (AID 1534)
[4] = target: Induced myeloid leukemia cell differentiation protein Mcl-1 (Homo sapiens, UniProt Q07820); type: functional
[5] = target: SUMO E1/E2 (Homo sapiens, UniProt P63279+Q9UBE0+Q9UBT2); test: SAR analysis of SUMOylation using HTRF in an in-Vitro dose response assay. [Related pubchem assays (depositor defined):AID2006, AID2011, AID2018, AID2069, AID2658]; type: functional
[6] = target: T1, Voltage-gated N-type calcium channel alpha-1B subunit/Amyloid beta A4 precursor protein-binding family A member 1 (Homo sapiens, UniProt Q00975+Q02410); test: disruptors of Mint-PDZ/N-type channel peptide interaction – biochemical, HTRF, set 2, SAR follow-up (AID 434980); type: functional
[7] = target: T1, Voltage-gated N-type calcium channel alpha-1B subunit/Amyloid beta A4 precursor protein-binding family A member 1; test: disruptors of Mint-PDZ/N-type channel peptide interaction – biochemical, HTRF, SAR follow-up (AID 2489); type: functional
[8] = test system: Streptococcus; test: Group A Streptococcus viability loss, dose response, counter-screen for streptokinase expression inhibitor project, luminescence, BacTiterGlo (AID 1915); type: functional, organism-based;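 also: potency for reduction of bacterial viability or growth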
[9] = target: Scavenger receptor class B member 1 (Mus musculus, UniProt Q61009); test: inhibitors of SR-BI mediated HDL lipid uptake, dose response, ldlA[mSR-BI] cells, fluorescence, cherry pick (AID 493194); type: functional, cell-based;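 also: cellular uptake of fluorescent DiI-labeled HDL measured as cell fluorescence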
[10] = test system: Streptococcus sp. 'group A'; test: growth inhibition of control SK(-) GAS strain, dose response, counter-screen for streptokinase expression inhibitor project, luminescence, kanamycin, BacTiterGlo, confirmation (AID 1900); type: functional, organism-based
[11] = target: T2, Streptokinase A (Streptococcus pyogenes serotype M1, UniProt P10520); test: S. pyogenes streptokinase expression inhibitors, potency, dose response, plasminogen activation absorbance, OD405 (AID 1914); type: functional, Streptococcus pyogenes M1 GAS;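 also: secreted streptokinase activity via plasminogen activation per viability signal from cell pellet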
T2 sequence (P10520 whole entry): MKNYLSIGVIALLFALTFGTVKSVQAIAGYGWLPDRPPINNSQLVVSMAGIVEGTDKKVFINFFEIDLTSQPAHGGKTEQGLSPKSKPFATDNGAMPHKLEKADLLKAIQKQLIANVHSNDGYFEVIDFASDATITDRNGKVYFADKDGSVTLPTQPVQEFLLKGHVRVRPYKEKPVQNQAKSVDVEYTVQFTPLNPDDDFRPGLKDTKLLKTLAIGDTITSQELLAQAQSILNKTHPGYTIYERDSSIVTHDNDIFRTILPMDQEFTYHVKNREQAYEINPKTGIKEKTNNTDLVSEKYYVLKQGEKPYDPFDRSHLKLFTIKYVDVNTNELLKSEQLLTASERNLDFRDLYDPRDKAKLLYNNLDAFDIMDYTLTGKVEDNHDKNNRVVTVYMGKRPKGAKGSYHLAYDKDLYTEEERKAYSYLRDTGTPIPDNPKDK

[12] = target: 26S proteasome non-ATPase regulatory subunit 14 (Homo sapiens, UniProt O00487); test: inhibition of proteasome subunit RPN11 – biochemical, fluorescence polarization, uHTS hits, confirmation (AID 602368); type: functional
[13] = target: G-protein coupled receptor 35 (Homo sapiens, UniProt Q9HC97); test: GPR35 antagonists blocking zaprinast-driven arrestin recruitment, primary screen, imaging, U2OS, beta-arrestin-GFP, zaprinast agonist (AID 2058); type: functional;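 also: antagonist potency meaning inhibition of agonist-induced arrestin redistribution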
[14] = target: 72 kDa type IV collagenase (Homo sapiens, UniProt P08253); test: Dose Response validation of uHTS RPN11 inhibitor hits using a MMP-2 Fluorescence assay.; type: functional
[15] = target: Eukaryotic translation initiation factor 4E (Mus musculus, UniProt P63073); test: eIF4E–eIF4G protein interaction inhibitors, dose response, biochemical, TR-FRET (AID 855); type: functional;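 also: potency for disrupting eIF4E binding to eIF4GI seen as loss of FRET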
[16] = target: T1, Voltage-gated N-type calcium channel alpha-1B subunit/Amyloid beta A4 precursor protein-binding family A member 1; type: protein assay
[17] = target: Prothrombin (Bos taurus, UniProt P00735); test: thrombin inhibition, dose response, biochemical, fluorescence polarization, uHTS hits (AID 602369); type: functional
[18] = target: T1, Voltage-gated N-type calcium channel alpha-1B subunit/Amyloid beta A4 precursor protein-binding family A member 1; type: protein assay; remark: listed apart in the source
[19] = target: T3, Long-chain-fatty-acid--AMP ligase FadD28 (Mycobacterium tuberculosis, UniProt P9WQ59); test: Fluorescence polarization aasay to screen for inhibitors that compete for the binding of FadD28 to a bisubstrate Measured in Biochemical System Using Plate Reader - 2147-01_Inhibitor_Dose_CherryPick_Activity.; type: functional, Mycobacterium tuberculosis H37Rv
T3 sequence (P9WQ59 whole entry): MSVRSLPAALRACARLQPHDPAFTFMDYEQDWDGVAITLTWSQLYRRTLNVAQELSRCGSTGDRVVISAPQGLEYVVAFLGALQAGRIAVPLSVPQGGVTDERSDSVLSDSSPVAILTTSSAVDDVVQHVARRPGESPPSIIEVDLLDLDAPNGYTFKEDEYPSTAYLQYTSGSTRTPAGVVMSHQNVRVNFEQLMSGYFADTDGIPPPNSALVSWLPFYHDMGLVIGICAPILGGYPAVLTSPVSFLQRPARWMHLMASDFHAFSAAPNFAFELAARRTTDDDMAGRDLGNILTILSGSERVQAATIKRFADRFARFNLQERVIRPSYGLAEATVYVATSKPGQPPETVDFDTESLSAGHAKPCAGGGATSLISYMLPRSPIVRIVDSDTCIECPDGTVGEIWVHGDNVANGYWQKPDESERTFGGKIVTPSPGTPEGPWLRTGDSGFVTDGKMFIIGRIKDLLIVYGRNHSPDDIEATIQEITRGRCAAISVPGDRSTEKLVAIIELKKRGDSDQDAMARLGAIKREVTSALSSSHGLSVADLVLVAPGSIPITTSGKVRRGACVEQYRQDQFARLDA

[20] = target: Aminopeptidase N (Plasmodium falciparum FcB1/Columbia, UniProt O96935); test: P. falciparum M1AAP inhibitors, biochemical, fluorogenic H-Leu-NHMec substrate, 1536-well (AID 1445); set-up: species or system Plasmodium falciparum 3D7, 3D7

T1 sequence (Q00975 whole entry): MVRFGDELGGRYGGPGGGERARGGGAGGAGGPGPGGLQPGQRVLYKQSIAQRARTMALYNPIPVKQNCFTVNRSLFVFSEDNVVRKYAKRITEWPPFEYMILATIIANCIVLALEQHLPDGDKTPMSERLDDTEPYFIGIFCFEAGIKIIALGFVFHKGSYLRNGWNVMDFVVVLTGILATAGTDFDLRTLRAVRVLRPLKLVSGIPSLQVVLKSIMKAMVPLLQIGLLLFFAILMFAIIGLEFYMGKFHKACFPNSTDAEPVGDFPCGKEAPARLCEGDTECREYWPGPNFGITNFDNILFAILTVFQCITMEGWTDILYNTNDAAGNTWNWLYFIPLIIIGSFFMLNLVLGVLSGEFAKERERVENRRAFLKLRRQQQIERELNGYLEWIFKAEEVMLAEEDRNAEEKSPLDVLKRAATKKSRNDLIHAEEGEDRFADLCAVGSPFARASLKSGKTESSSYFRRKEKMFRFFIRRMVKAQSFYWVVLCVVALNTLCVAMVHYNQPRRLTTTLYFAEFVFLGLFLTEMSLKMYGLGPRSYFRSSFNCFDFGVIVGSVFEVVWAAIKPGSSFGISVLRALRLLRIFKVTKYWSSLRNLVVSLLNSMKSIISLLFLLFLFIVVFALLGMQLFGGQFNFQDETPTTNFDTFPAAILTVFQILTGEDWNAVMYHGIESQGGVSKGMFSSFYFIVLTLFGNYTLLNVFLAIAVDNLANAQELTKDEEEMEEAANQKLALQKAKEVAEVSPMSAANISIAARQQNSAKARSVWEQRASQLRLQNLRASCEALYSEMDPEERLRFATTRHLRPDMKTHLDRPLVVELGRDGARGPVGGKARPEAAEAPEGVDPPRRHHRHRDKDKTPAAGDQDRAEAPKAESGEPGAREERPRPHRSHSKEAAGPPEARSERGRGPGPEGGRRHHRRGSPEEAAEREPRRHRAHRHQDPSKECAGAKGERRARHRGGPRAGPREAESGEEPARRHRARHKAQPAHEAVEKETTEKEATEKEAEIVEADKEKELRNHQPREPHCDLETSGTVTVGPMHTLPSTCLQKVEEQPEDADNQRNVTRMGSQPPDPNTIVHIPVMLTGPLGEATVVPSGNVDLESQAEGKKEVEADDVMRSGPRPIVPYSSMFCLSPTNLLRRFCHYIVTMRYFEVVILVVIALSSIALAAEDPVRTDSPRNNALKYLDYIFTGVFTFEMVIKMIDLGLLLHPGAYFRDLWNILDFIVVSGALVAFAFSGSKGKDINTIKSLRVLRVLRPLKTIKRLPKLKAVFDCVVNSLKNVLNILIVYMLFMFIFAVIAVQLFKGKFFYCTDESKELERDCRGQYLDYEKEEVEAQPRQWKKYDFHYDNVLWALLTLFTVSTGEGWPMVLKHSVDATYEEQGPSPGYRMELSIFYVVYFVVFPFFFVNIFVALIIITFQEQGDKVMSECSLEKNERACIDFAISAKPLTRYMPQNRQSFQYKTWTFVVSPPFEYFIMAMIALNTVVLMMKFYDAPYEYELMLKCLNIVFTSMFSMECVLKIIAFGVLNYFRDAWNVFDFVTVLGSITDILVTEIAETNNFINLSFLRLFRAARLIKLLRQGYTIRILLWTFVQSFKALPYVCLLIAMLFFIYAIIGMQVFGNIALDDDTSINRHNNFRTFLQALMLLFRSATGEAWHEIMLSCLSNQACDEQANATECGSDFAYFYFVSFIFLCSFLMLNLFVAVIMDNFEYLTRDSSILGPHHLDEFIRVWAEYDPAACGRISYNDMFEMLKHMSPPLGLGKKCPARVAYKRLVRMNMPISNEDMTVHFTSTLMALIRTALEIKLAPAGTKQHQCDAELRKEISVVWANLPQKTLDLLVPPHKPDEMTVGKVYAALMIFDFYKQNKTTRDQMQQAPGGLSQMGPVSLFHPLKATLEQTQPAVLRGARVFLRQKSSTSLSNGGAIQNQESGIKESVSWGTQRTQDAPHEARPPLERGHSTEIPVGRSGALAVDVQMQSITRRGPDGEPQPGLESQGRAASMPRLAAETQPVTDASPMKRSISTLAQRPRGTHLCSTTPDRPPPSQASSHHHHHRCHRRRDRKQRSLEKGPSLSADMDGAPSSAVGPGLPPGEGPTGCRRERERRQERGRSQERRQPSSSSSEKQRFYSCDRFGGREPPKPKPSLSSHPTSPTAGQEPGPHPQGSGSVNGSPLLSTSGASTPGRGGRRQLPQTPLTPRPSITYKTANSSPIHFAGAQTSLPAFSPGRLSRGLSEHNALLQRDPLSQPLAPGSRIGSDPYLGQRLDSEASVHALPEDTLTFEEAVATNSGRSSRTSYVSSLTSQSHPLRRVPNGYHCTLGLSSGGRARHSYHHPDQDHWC
T1 sequence (Q02410 whole entry): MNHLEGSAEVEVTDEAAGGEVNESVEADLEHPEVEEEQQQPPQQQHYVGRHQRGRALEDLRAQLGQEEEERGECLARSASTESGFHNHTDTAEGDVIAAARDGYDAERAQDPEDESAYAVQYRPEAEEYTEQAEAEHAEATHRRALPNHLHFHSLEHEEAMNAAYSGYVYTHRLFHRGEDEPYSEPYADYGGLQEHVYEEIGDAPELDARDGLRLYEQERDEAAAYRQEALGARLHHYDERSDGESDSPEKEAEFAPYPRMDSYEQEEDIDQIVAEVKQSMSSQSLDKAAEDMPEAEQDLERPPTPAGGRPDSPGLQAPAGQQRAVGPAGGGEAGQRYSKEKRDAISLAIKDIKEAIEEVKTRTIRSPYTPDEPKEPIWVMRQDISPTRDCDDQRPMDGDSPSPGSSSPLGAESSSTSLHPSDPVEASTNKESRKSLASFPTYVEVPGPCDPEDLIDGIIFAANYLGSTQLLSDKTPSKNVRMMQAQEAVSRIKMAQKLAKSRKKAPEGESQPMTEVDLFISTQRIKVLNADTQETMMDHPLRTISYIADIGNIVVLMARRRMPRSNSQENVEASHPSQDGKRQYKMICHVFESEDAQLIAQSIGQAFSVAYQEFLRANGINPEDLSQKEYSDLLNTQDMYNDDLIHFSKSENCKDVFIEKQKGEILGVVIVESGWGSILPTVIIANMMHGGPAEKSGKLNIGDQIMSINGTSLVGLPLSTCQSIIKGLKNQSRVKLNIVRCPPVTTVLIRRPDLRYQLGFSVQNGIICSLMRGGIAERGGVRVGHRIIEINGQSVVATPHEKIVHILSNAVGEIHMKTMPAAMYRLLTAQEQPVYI
Chain of Induced myeloid leukemia cell differentiation protein Mcl-1 (Q07820 whole entry): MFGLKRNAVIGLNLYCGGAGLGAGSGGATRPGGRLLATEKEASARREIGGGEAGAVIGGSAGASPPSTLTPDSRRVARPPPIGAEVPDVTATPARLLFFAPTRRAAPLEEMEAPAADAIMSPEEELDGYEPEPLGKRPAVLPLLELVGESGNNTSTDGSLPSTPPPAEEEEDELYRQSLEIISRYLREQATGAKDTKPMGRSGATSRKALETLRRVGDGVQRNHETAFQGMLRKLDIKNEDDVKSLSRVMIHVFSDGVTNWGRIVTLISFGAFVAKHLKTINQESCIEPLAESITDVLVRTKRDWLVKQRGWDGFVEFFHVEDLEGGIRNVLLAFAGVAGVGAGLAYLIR
Chain of SUMO E1/E2 (Q9UBE0 whole entry): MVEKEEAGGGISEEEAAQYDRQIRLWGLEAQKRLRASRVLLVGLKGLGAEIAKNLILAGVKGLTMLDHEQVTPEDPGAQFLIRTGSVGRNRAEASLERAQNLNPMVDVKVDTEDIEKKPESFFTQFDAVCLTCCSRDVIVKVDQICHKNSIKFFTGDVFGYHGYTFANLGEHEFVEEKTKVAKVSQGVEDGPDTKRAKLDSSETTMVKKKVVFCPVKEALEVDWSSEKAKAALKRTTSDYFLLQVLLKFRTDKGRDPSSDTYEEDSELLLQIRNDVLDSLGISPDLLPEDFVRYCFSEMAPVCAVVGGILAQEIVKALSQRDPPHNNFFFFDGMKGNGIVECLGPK
Chain of SUMO E1/E2 (Q9UBT2 whole entry): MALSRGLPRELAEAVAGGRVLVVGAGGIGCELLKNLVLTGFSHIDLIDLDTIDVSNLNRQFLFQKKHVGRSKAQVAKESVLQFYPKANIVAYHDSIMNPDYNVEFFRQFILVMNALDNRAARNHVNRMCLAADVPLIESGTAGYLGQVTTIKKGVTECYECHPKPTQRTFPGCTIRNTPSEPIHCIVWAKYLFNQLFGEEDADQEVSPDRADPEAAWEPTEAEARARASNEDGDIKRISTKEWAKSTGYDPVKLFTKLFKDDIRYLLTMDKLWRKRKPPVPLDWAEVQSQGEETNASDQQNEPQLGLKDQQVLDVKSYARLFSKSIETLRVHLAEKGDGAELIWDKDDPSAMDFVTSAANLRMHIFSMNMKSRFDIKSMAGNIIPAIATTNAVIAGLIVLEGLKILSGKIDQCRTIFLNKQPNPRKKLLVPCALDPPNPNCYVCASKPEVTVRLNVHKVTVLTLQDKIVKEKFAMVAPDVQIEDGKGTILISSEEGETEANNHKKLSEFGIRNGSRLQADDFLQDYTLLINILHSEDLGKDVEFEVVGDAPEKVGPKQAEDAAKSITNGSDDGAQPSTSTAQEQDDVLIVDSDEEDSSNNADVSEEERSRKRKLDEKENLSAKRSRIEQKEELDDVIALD
Chain of SUMO E1/E2 (P63279 whole entry): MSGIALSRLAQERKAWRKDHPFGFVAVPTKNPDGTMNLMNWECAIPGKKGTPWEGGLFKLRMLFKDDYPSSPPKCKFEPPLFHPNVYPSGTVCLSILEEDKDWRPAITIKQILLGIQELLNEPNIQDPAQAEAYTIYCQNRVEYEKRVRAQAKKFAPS
Chain of G-protein coupled receptor 35 (Q9HC97 whole entry): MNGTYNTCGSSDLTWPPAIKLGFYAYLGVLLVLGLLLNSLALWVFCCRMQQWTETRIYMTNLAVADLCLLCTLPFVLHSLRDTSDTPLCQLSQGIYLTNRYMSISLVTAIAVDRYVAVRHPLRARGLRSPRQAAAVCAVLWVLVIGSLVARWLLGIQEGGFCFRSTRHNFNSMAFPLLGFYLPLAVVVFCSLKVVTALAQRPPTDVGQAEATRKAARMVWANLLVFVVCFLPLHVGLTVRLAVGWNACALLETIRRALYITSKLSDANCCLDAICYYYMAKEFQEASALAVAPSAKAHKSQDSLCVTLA

Question: Which IC50 [1] does the source give for `O=C1NC(=S)S/C1=C\c1c(-c2ccccc2)[nH]c2ccccc12` here?
Answer: > 50 µM (not active)

Question: And the IC50 [2]?
Answer: > 66.6 µM (inactive)

Question: What about the IC50 [3] of the same compound?
Answer: > 50 µM (not active)

Question: And the IC50 [4]?
Answer: 4.97 µM (active)

Question: What does the source list for `O=C(NN=Cc1ccc(F)cc1)c1cc(-c2ccco2)nc2ccccc12`?
Answer: IC50 [5]: 5.24 µM (active); IC50 [6]: 10.9 µM (active); IC50 [7]: 6.45 µM (active)

Question: How did the EC50 [8] turn out when `O=C(Nc1ccc(-c2csc(Nc3ccccc3)n2)cc1)c1cccc(C(F)(F)F)c1` was run?
Answer: > 150 µM (not active)

Question: What about the AC50 [9] of the same compound?
Answer: 0.347 µM (active)

Question: What about the EC50 [10] of the same compound?
Answer: > 150 µM (not active)

Question: What about the EC50 [11] of the same compound?
Answer: > 150 µM (not active)

Question: With `N=C1/C(=C/c2ccc(-c3cccc(C(=O)O)c3)o2)C(=O)N=C2SC=C(c3ccccc3)N12` as the compound, how does the IC50 [12] read?
Answer: 5.82 µM (active)

Question: What about the IC50 [13] of the same compound?
Answer: 1.1 µM (active)

Question: And the IC50 [14]?
Answer: 6.29 µM (active)

Question: What about the IC50 [15] of the same compound?
Answer: 18.1 µM (active)

Question: What about the IC50 [16] of the same compound?
Answer: > 50 µM (inactive)

Question: And the IC50 [17]?
Answer: 10.2 µM (active)

Question: And the IC50 [4]?
Answer: > 54 µM (active)

Question: And the IC50 [18]?
Answer: 13.3 µM (active)

Question: `NS(=O)(=O)c1ccc(Nc2nc3ccccc3nc2NS(=O)(=O)c2cccc([N+](=O)[O-])c2)cc1` was tested. Which AC50 [19] did it give?
Answer: 53 µM (active)

Question: And the IC50 [20]?
Answer: 42.9 µM (active)
